According to patent publication US12156880B2, “Heterocyclic RIP1 kinase inhibitors” (Rigel Pharmaceuticals, Inc., priority 2021, dated 2024):

Assays:
RIPK1 = target: T1, RIPK1 (Homo sapiens, UniProt Q13546); assay: RIPK1 ADP-Glo biochemical kinase assay; settings: read-out: RIPK1 ADP-Glo Kinase (IC50)
T1 sequence (Q13546 1-671): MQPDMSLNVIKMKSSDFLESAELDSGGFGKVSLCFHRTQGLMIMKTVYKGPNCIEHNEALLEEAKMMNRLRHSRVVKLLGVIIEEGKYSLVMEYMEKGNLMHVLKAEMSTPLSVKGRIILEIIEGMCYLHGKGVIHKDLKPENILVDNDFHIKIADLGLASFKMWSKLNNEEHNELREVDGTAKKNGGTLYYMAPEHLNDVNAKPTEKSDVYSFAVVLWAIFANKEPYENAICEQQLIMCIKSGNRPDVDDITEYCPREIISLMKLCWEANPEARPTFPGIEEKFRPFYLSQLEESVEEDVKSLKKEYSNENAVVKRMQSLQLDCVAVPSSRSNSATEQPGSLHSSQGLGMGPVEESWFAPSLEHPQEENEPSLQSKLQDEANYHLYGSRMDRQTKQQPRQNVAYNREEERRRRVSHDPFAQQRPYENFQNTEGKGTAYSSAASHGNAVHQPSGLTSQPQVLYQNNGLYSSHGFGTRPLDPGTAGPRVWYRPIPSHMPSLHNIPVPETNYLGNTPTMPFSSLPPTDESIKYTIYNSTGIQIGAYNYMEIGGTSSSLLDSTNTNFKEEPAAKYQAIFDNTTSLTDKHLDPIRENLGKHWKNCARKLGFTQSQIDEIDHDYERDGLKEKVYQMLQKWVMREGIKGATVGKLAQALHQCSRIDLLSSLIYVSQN
Protocol: In this example, compounds of the disclosure were evaluated using a biochemical assay using the ADP-Glo™ technology.
ADP-Glo™ (Promega, Madison, WI, USA) reagents were thawed at ambient temperature. Kinase Detection Reagent was prepared by mixing kinase detection buffer with the lyophilized kinase detection substrate.
A […] stock volume of 5× Reaction Kinase Buffer was made by mixing 1000 μl of 1M MgCl2, 500 μl of 1M Tris-HCL pH7.4, 0.5 mg/ml (25 mg) of BSA, and 3475 μl of distilled H2O. A 3 ml 2× working stock volume of Reaction Kinase Buffer was made containing a final concentration of 100 μM DTT and 4 mM MnCl2.
Components of RIPK1 enzyme (Rigel Pharmaceuticals, South San Francisco, CA, USA) were thawed on ice. Diluted RIPK1 was prepared in 1× Kinase Reaction Buffer (diluted from 2× buffer) to 31 ng/well.
1.0 ul of diluted compound was added to a 384 well plate in duplicate. […] The final reaction volume was 5.0 μl.
The plate was quickly centrifuged and the reaction was incubated at 30° C. for 30 minutes. Adding 5 μl of ADP-Glo™ terminated the reaction. The plate was quickly centrifuged and the reaction was incubated at room temperature for 40 minutes. Kinase Detection Reagent was then added and incubated at room temperature for 30 minutes. The relative light unit (RLU) of kinase reaction was determined by luminescent (Luminescence 0.1 s) using a Wallac Victor2 Luminometer (PerkinElmer, Waltham, MA, USA).

U937 cells = assay: U937 cell necroptosis assay (TNFa + zVAD, CellTiter-Glo recovery); assay type: cell-based; settings: Homo sapiens, U-937, 18 h, TNFa 2 ng/mL + zVAD-fmk, read-out: U937 Zvad TNF CTG Recovery, U937, TNFa + zVAD (IC50)
Protocol: In this example, U937 and L929 cells were exposed to compounds of the present disclosure and a cell necroptosis assay was conducted to evaluate the compounds' activity against human RIP1 and murine RIP1.
U937 and L929 cells were obtained from the American Type Culture Collection (Manassas, VA, USA). Both cells were maintained in logarithmic growth phase in complete RPMI 1640 media (Sigma, ST Louis, MO, USA) supplemented with 10% fetal bovine serum (Sigma, ST Louis, MO, USA) at 37° C. with 5% CO2. For necroptosis assay, L929 cells were plated for 18 h in 100 μL/well medium at 10K cells/well in Costar 96-well black clear-bottom plates (Fisher Scientific, Hampton, NH, USA); U937 cells were plated on the day of the assay in 50 μL/well medium containing 60 uM zVAD-fmk (Lonza, Basel, Switzerland) at 50K cells/well. Medium from L929 cells were removed from the 96-well plates and replaced with 50 μL/well new medium containing 40 uM zVAD-fmk. Each compound of the present disclosure evaluated in this example was serially diluted in DMSO from 2.5 mM in 4-fold dilutions, and then diluted 1:125 in complete medium. 50 μL/well 2× of the compound was then added to the cells in the plates. The cells were pre-incubated with the compound for 1 hour at 37° C. with 5% CO2 and before addition of 10 μL/well 11×TNFa (Peprotech, Rocky Hill, NJ, USA) to give a final concentration of 2 ng/mL for TNFa. The relative amount of necroptosis cells was determined by luminescent using a Wallac Victor2 Luminometer (PerkinElmer, Waltham, MA, USA) and a CellTiter-Glo® Luminescent Cell Viability Reagent Assay (Promega, Madison, WI, USA) added per manufacturer instructions after 18 hours of TNFa stimulation at 37° C. with 5% CO2. This example establishes that embodiments of the compounds described herein have unexpectedly potent activity against human RIP1 and murine RIP1, which allows their assessment in in vivo mouse models of disease.

Compound	IC50 (RIPK1)	IC50 (U937 cells)
CN1C(=O)[C@@H](NC(=O)n2cc(Cc3ccccn3)cn2)COc2ccc(C#CC(C)(C)O)cc21 [I-8, (S)—N-(7-(3-Hydroxy-3-methylbut-1-yn-1-yl)-5-methyl-4-oxo-2,3,4,5-tetrahydrobenzo[b][1,4]oxazepin-3-yl)-4-(pyridin-2-ylmethyl)-1H-pyrazole-1-carboxamide]	26.4 nM	–
CN1C(=O)[C@@H](NC(=O)c2cc(Cc3cccc(O)n3)ccn2)COc2ccc(C#CC3(O)COC3)cc21 [I-10, (S)—N-(7-((3-hydroxyoxetan-3-yl)ethynyl)-5-methyl-4-oxo-2,3,4,5-tetrahydrobenzo[b][1,4]oxazepin-3-yl)-4-((6-hydroxypyridin-2-yl)methyl)picolinamide]	304 nM	2830 nM
CN1C(=O)[C@@H](NC(=O)n2cc(Cc3cccnn3)cn2)COc2ccc(C#CC(C)(C)O)cc21 [I-17, (S)—N-(7-(3-Hydroxy-3-methylbut-1-yn-1-yl)-5-methyl-4-oxo-2,3,4,5-tetrahydrobenzo[b][1,4]oxazepin-3-yl)-4-(pyridazin-3-ylmethyl)-1H-pyrazole-1-carboxamide]	111 nM	715 nM
Cc1cccc(Cc2cnn(C(=O)N[C@H]3COc4ccc(Br)cc4N(C)C3=O)c2)n1 [I-19, (S)—N-(7-Bromo-5-methyl-4-oxo-2,3,4,5-tetrahydrobenzo[b][1,4]oxazepin-3-yl)-4-((6-methylpyridin-2-yl)methyl)-1H-pyrazole-1-carboxamide]	–	264 nM
CN1C(=O)[C@@H](NC(=O)n2cc(Cc3ccc(F)nc3)cn2)COc2ccc(Br)cc21 [I-24, (S)—N-(7-Bromo-5-methyl-4-oxo-2,3,4,5-tetrahydrobenzo[b][1,4]oxazepin-3-yl)-4-((6-fluoropyridin-3-yl)methyl)-1H-pyrazole-1-carboxamide]	–	69.8 nM
CN1C(=O)[C@@H](NC(=O)n2cc(Cc3cccnn3)cn2)COc2ccc(Br)cc21 [I-25, (S)—N-(7-Bromo-5-methyl-4-oxo-2,3,4,5-tetrahydrobenzo[b][1,4]oxazepin-3-yl)-4-(pyridazin-3-ylmethyl)-1H-pyrazole-1-carboxamide]	–	4120 nM
CN1C(=O)[C@@H](NC(=O)n2cc(Cc3ncccn3)cn2)COc2ccc(Br)cc21 [I-30, (S)—N-(7-Bromo-5-methyl-4-oxo-2,3,4,5-tetrahydrobenzo[b][1,4]oxazepin-3-yl)-4-(pyrimidin-2-ylmethyl)-1H-pyrazole-1-carboxamide]	480 nM	7210 nM
CN1C(=O)[C@@H](NC(=O)n2cc(Cc3ncccn3)cn2)COc2ccc(C#CC(C)(C)O)cc21 [I-31, (S)—N-(7-(3-Hydroxy-3-methylbut-1-yn-1-yl)-5-methyl-4-oxo-2,3,4,5-tetrahydrobenzo[b][1,4]oxazepin-3-yl)-4-(pyrimidin-2-ylmethyl)-1H-pyrazole-1-carboxamide]	106 nM	1980 nM
CN1C(=O)[C@@H](NC(=O)n2cc(Cc3ccc(F)nc3F)cn2)COc2ccc(Br)cc21 [I-49, (S)—N-(7-Bromo-5-methyl-4-oxo-2,3,4,5-tetrahydrobenzo[b][1,4]oxazepin-3-yl)-4-((2,6-difluoropyridin-3-yl)methyl)-1H-pyrazole-1-carboxamide]	207 nM	170 nM
Cc1noc(C)c1Cc1ccnc(C(=O)N[C@H]2COc3ccc(C#CC(C)(C)O)cc3N(C)C2=O)c1 [I-68, (S)-4-((3,5-dimethylisoxazol-4-yl)methyl)-N-(7-(3-hydroxy-3-methylbut-1-yn-1-yl)-5-methyl-4-oxo-2,3,4,5-tetrahydrobenzo[b][1,4]oxazepin-3-yl)picolinamide]	467 nM	7160 nM
Cc1noc(C)c1Cc1ccnc(C(=O)N[C@H]2COc3ccc(C#CC4(O)COC4)cc3N(C)C2=O)c1 [I-69, (S)-4-((3,5-dimethylisoxazol-4-yl)methyl)-N-(7-((3-hydroxyoxetan-3-yl)ethynyl)-5-methyl-4-oxo-2,3,4,5-tetrahydrobenzo[b][1,4]oxazepin-3-yl)picolinamide]	326 nM	2830 nM
CN1C(=O)[C@@H](NC(=O)c2cc(Oc3ccc(C(F)(F)F)nc3)ccn2)COc2ccc(C#CC(C)(C)O)cc21 [I-80, (S)—N-(7-(3-hydroxy-3-methylbut-1-yn-1-yl)-5-methyl-4-oxo-2,3,4,5-tetrahydrobenzo[b][1,4]oxazepin-3-yl)-4-((6-(trifluoromethyl)pyridin-3-yl)oxy)picolinamide]	4530 nM	7310 nM
CN1C(=O)[C@@H](NC(=O)c2cc(Oc3ccc(C(F)(F)F)nc3)ccn2)COc2ccc(C#CC3(O)COC3)cc21 [I-81, (S)—N-(7-((3-hydroxyoxetan-3-yl)ethynyl)-5-methyl-4-oxo-2,3,4,5-tetrahydrobenzo[b][1,4]oxazepin-3-yl)-4-((6-(trifluoromethyl)pyridin-3-yl)oxy)picolinamide]	392 nM	5290 nM
CN1C(=O)[C@@H](NC(=O)c2cc(O)ccn2)COc2ccc(C#CC(C)(C)O)cc21 [I-86, (S)-4-hydroxy-N-(7-(3-hydroxy-3-methylbut-1-yn-1-yl)-5-methyl-4-oxo-2,3,4,5-tetrahydrobenzo[b][1,4]oxazepin-3-yl)picolinamide]	–	59600 nM
CN1C(=O)[C@@H](NC(=O)c2cc(O)ccn2)COc2ccc(C#CC3(O)COC3)cc21 [I-89, (S)-4-hydroxy-N-(7-((3-hydroxyoxetan-3-yl)ethynyl)-5-methyl-4-oxo-2,3,4,5-tetrahydrobenzo[b][1,4]oxazepin-3-yl)picolinamide]	–	28200 nM
CN1C(=O)[C@@H](NC(=O)n2cc(Oc3cccc(F)n3)cn2)COc2ccc(Br)cc21 [I-110, (S)—N-(7-Bromo-5-methyl-4-oxo-2,3,4,5-tetrahydrobenzo[b][1,4]oxazepin-3-yl)-4-((6-fluoropyridin-2-yl)oxy)-1H-pyrazole-1-carboxamide]	6470 nM	9070 nM
CN1C(=O)[C@@H](NC(=O)n2cc(Oc3cccc(F)n3)cn2)COc2ccc(C#CC(C)(C)O)cc21 [I-112, (S)-4-((6-Fluoropyridin-2-yl)oxy)-N-(7-(3-hydroxy-3-methylbut-1-yn-1-yl)-5-methyl-4-oxo-2,3,4,5-tetrahydrobenzo[b][1,4]oxazepin-3-yl)-1H-pyrazole-1-carboxamide]	80.4 nM	1850 nM
CN1C(=O)[C@@H](NC(=O)c2cc(Oc3ccccn3)ccn2)COc2ccc(C#CC(C)(C)O)cc21 [I-128, (S)—N-(7-(3-hydroxy-3-methylbut-1-yn-1-yl)-5-methyl-4-oxo-2,3,4,5-tetrahydrobenzo[b][1,4]oxazepin-3-yl)-4-(pyridin-2-yloxy)picolinamide]	2150 nM	199000 nM
